In PubChem BioAssay AID588780 (Sanford-Burnham Center for Chemical Genomics, 2011):
Activity calls are given as the source filed them.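 Rule for the calls: active = compounds whose fitted half-maximal concentration in the cell-protection dose series is at or below a set limit; inactive = the rest.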

What follows are compounds tested on H9c2 cardiomyocytes, 2-deoxyglucose stress, ATP luminescence, 2 h (assay: H9c2 cell survival under 2-deoxyglucose stress – uHTS hits, dose response (AID 588780)).

| Compound | IC50 |
| --- | --- |
| Cc1nc(N2CCN(S(=O)(=O)c3cccc4nonc34)CC2)c2c3c(sc2n1)CCCC3 | > 79 µM (inactive) |
| CC(C)(C)c1ccc(OCC(=O)Nc2ccc3c4c(cccc24)C(=O)NC3=O)cc1 | > 79 µM (inactive) |
| Cc1ccc(-c2csc(N3CCC[C@@H]3C(=O)NCCn3c(-c4ccncc4)nc4ccccc43)n2)cc1 | > 79 µM (inactive) |
| CC(C)(C)OC(=O)NCc1ccc(NC(=O)c2nc[nH]c2C(=O)NCCCCCCNC(=O)c2[nH]cnc2C(=O)Nc2ccc(CNC(=O)OC(C)(C)C)cc2)cc1 | > 79 µM (inactive) |
| C=CC[C@@H](CC(=O)NCCO)C(=O)NC[C@H](OC(=O)[C@@H](CC=C)Cc1ccc(F)cc1)c1ccccc1 | > 79 µM (inactive) |
| C=CCC[C@H](Cc1ccc(F)cc1)C(=O)OC[C@@H](Cc1c[nH]c2ccccc12)NC(=O)[C@@H](CC=C)CC(=O)NCCO | > 79 µM (inactive) |
| COc1cccc(Cn2nc(C(=O)O)c3ccccc3c2=O)c1 | 32.3 µM (inactive) |
| N#CCSc1nc2cc(C(=O)N3CCC(C(N)=O)CC3)ccc2c2nc3ccccc3n12 | 15 µM |
| CC(NC(=O)Cn1nc(C(=O)O)c2ccccc2c1=O)c1ccccc1 (stereo unspecified) | > 79 µM (inactive) |
| CCCn1c(=O)c(C(=O)NCCc2ccc(Cl)cc2)c(O)c2ccccc21 | 11 µM |
| CC(=C/c1ccc(C(C)C)cc1)/C=N/NC(=O)c1ccncc1 | > 79 µM (inactive) |
| COc1ccc(OC)c(Nc2nc(N)c([N+](=O)[O-])c(N3CCOCC3)n2)c1 | 20.9 µM |
| CCOC(=O)Cc1csc(NC(=O)NC2(C(F)(F)F)Oc3ccccc3O2)n1 | 35.3 µM (inactive) |
| COc1ccc(-c2nc(NC(=O)c3ccc(OCC(=O)N4CCOCC4)c(OC)c3)sc2C)cc1 | > 79 µM (inactive) |
| COc1cccc(-c2nn3c(-c4ccccn4)nnc3s2)c1 | 13.6 µM |
| COc1cc(-c2cc(NC(C)=O)c3ncc(-c4ccc(C(C)=O)cc4)n3c2)cc(OC)c1OC | > 79 µM (inactive) |
| COc1cc2c(cc1OC)CN(CC(=O)Nc1ccccc1C#N)CC2 | 44.1 µM (inactive) |
| Cc1cc(C)c2ccc(NN)nc2c1O | > 79 µM (inactive) |
| Cc1ccccc1C1c2[nH]c3ccccc3c2C[C@H]2C(=O)N(c3ccccc3C(=O)NCCCN3CCOCC3)C(=O)N12 (stereo partly specified) | 27.1 µM |
| CCC(C)N(C(=O)COC(=O)Cc1n[nH]c(=O)c2ccccc12)C1CCS(=O)(=O)C1 (stereo unspecified) | > 79 µM (inactive) |
| COc1cc(-c2cc(NC(C)=O)c3ncc(-c4ccccc4)n3c2)cc(OC)c1OC | > 79 µM (inactive) |
| Cc1nnc2ccc(-c3cccc(NC(=O)c4ccc(Cl)nc4)c3)nn12 | 22.1 µM |
| CCN1C(=O)/C(=C/c2nc3ccccc3c(=O)[nH]2)c2ccccc21 | > 79 µM (inactive) |

| Compound | IC50 |
| --- | --- |
| Cc1[nH]c2ccccc2c1C(=O)CSc1nc2ccccc2[nH]1 | > 79 µM (inactive) |
| COc1ccc([N+](=O)[O-])cc1NC(=O)C(C)OC(=O)Cn1[nH]c(=O)c2ccccc2c1=O (stereo unspecified) | 40 µM (inactive) |
| COc1cc(-c2cnc3c(NC=O)cc(-c4cccc(NC(C)=O)c4)cn23)cc(OC)c1OC | > 79 µM (inactive) |
| COc1ccc2c(c1OC)C(=O)N1c3ccccc3C(=O)N(c3ccccc3)C21 (stereo unspecified) | > 79 µM (inactive) |
| CCOc1cc(/C=N\NC(=O)c2ccc(NC(=O)C(C)(C)C)cc2)ccc1OC(=O)c1cccc(C)c1 | 15.3 µM |
| Cn1c(C(=O)NCc2cccs2)cc2c(=O)n(C)c3ccccc3c21 | > 79 µM (inactive) |
| COc1ccc(CCn2c(Br)nc3c2c(=O)[nH]c(=O)n3C)cc1 | > 79 µM (inactive) |
| O=C(CCc1nc2ccccc2c(=O)[nH]1)N1CCN(S(=O)(=O)c2ccc(F)cc2)CC1 | > 79 µM (inactive) |
| COc1ccc(-c2cc(C(=O)N(C)Cc3ccccc3F)c3ccccc3n2)cc1OC | > 79 µM (inactive) |
| COc1ccc(N(CC(=O)Nc2ccc3c(c2)OCO3)S(=O)(=O)c2ccccc2)c(OC)c1 | 15.4 µM |
| O=C(CN1CCN(c2ccccn2)CC1)Nc1ccc([N+](=O)[O-])cc1C(=O)Nc1ccccc1F | 11.3 µM |
| CCCC(c1nnnn1C(C)(C)CC)N(CCCO)Cc1cc2cc(C)cc(C)c2[nH]c1=O (stereo unspecified) | > 79 µM (inactive) |
| COc1ccc(C(=O)O/N=C(/c2ccccc2)c2ccncc2)cc1OC | > 79 µM (inactive) |
| COc1cccc(C(c2nnnn2Cc2ccccc2)N2CCN(C3CCCC3)CC2)c1OC (stereo unspecified) | 35.5 µM (inactive) |
| O=c1[nH]ccc2c(O)cccc12 | > 79 µM (inactive) |
| Cc1csc(SCc2nc3sc4c(c3c(=O)[nH]2)CCC4)n1 | > 79 µM (inactive) |
| CCCCN1CC(COCc2ccccc2)Oc2cccc(OCCN3C(=O)[C@@H]4[C@H](C3=O)C3C=C[C@H]4C3)c2S1(=O)=O (stereo partly specified) | > 79 µM (inactive) |
| O=C(NCC1CCCO1)C(c1ccc(F)cc1)N(C(=O)Cn1nnc(-c2ccc(F)cc2)n1)c1cccc(O)c1 (stereo unspecified) | 13.1 µM |
| O=C(COC(=O)Cn1[nH]c(=O)c2ccccc2c1=O)Nc1ncc(Cl)cc1Cl | > 79 µM (inactive) |
| O=C(NNC(=O)C(c1ccccc1)c1ccccc1)c1ccccn1 | > 79 µM (inactive) |
| CC(=O)n1cc(/C=N/NC(=O)c2sc(C)nc2C)c2ccccc21 | > 79 µM (inactive) |
| Cc1cc(C)c(C)c(S(=O)(=O)N2CCC(C(=O)NNC(=O)c3ccccc3O)CC2)c1C | > 79 µM (inactive) |
| CCn1c(=O)cc(OCC(=O)Nc2ccccc2C#N)c2ccccc21 | > 79 µM (inactive) |

| Compound | IC50 |
| --- | --- |
| COc1cc2nc(Nc3ccc(F)cc3)nc(N)c2cc1OC | 42.9 µM (inactive) |
| COc1ccc(-c2nnc3sc(-c4ccco4)nn23)cc1OC | > 79 µM (inactive) |
| CN(C)S(=O)(=O)c1ccc(NC(=O)COC(=O)Cn2[nH]c(=O)c3ccccc3c2=O)cc1 | 9.56 µM |
| COc1cccc(-c2nnc(NC(=O)c3ccc(S(=O)(=O)N(CC(C)C)CC(C)C)cc3)o2)c1 | > 79 µM (inactive) |
| Cc1ccc(N2CC(C(=O)NCc3n[nH]c(=O)c4ccccc34)CC2=O)cc1C (stereo unspecified) | > 79 µM (inactive) |
| COc1ccc(C(=O)COC(=O)C(CCCCN2C(=O)C3C4C=CC(C4)C3C2=O)N2C(=O)C3C4C=CC(C4)C3C2=O)cc1 (stereo unspecified) | 13.7 µM |
| Cc1ccc(C(=O)OCC(=O)Nc2sccc2C(N)=O)cc1NC(=O)c1ccco1 | > 79 µM (inactive) |
| O=C(N/N=C/c1ccccn1)c1cccs1 | > 79 µM (inactive) |
| COc1cc(OC)c(-c2nn3c(-c4ccco4)nnc3s2)cc1OC | 6.54 µM |
| COc1ccc(-c2cc(-c3nnc(COC(=O)C4CC4C)o3)c3ccccc3n2)cc1OC (stereo unspecified) | > 79 µM (inactive) |
| COc1ccc(NS(=O)(=O)c2ccc3ccccc3c2)c2ncccc12 | > 79 µM (inactive) |
| CCOC(=O)C1=C(C)NC(C)=C(C(=O)OCC)C1C(=O)OCC(=O)NC1CCCCC1 | 6.02 µM |
| COc1cc(C(=O)NCC(=O)N/N=C/c2ccc(-c3cccc([N+](=O)[O-])c3)o2)cc(OC)c1OC | 12.5 µM |
| O=C(CCCN1C(=O)c2cccc3cccc(c23)C1=O)N1CCN(c2ccccc2O)CC1 | 10.3 µM |
| CCOC(=O)c1nc(Nc2ccc(C(=O)OC)cc2)c2ccccc2n1 | > 79 µM (inactive) |
| O=C1c2ccccc2NC(c2ccc(-c3cccc([N+](=O)[O-])c3)o2)N1O (stereo unspecified) | 28.4 µM |
| O=C(CCc1nc2ccccc2c(=O)[nH]1)Nc1nc(-c2cccs2)cs1 | > 79 µM (inactive) |
| COC(=O)c1cccc(S(=O)(=O)N(Cc2ccco2)Cc2cc3cc(OC)ccc3[nH]c2=O)c1 | > 79 µM (inactive) |
| Cc1ccc(C(C(=O)NCc2ccccc2)N(Cc2cccs2)C(=O)c2ccc3c(c2)OCCO3)cc1 (stereo unspecified) | > 79 µM (inactive) |
| COC(=O)c1ccc2c(=O)[nH]c(COC(=O)c3[nH]c(C)c(C(C)=O)c3C)nc2c1 | > 79 µM (inactive) |
| CCCNC(=O)c1ccc2c(=O)c(O)c(-c3ccc(F)cc3)[nH]c2c1 | > 79 µM (inactive) |
| O=C(COc1ccc(F)cc1)N/N=C/c1cccc2cccnc12 | > 79 µM (inactive) |
| COc1ccc(-c2cc(-c3ccc(O)cc3)nc(N)c2C#N)cc1OC | > 79 µM (inactive) |

| Compound | IC50 |
| --- | --- |
| CCCn1c(SC(C(=O)Nc2cccc(OC)c2)c2ccccc2)nc2ccccc2c1=O (stereo unspecified) | > 79 µM (inactive) |
| O=C(c1ccccc1)c1ccc2nc(N3CCN(C(=O)c4ccco4)CC3)c3nncn3c2c1 | 14.9 µM |
| CC(=O)c1ccc(N2CCN(C(=O)C3CCCN(c4ncnc5c4nc4n5CCCCC4)C3)CC2)cc1 (stereo unspecified) | 17.5 µM |
| Cc1nc(OCc2ccccc2)c2ccccc2n1 | 9.43 µM |
| COc1cc(-c2cc(NC(C)=O)c3ncc(-c4cc(OC)c(OC)c(OC)c4)n3c2)cc(OC)c1OC | 5.28 µM |
| Cc1cc(C)c(C(=O)CC(=O)c2ccccc2Cl)c(O)c1 | > 79 µM (inactive) |
| O=C(Cn1[nH]c(=O)c2ccccc2c1=O)N1CC=C(c2ccccc2)CC1 | 21 µM |
| COc1ccc(OC)c(Nc2nc(N)nc(-c3cc4ccccc4o3)n2)c1 | > 79 µM (inactive) |
| Cc1cccc(NC(=O)c2nc[nH]c2C(=O)NCC(=O)OCc2ccccc2)c1 | > 79 µM (inactive) |
| Cc1ccc(C(=O)N/N=C\c2ccc(-c3ccc(Cl)cc3)o2)cn1 | 9.3 µM |
| O=C(Nc1cccc2cccnc12)c1ccc2sc([C@H]3C[C@H](O)[C@@H](CO)O3)nc2c1 | 14.3 µM |
| Cn1nc(-c2ccccc2F)c2cc(C(=O)Nc3ccc4c(c3)OCCO4)sc21 | > 79 µM (inactive) |
| CCOc1ccc(C(=O)COC(=O)Cn2[nH]c(=O)c3ccccc3c2=O)cc1 | > 79 µM (inactive) |
| O=C(CSc1nc2ccccc2c(=O)[nH]1)N1CCN(S(=O)(=O)c2ccccc2)CC1 | > 79 µM (inactive) |
| C[C@H](NC(=O)c1nc[nH]c1C(=O)NCC(=O)OCc1ccccc1)C(=O)OCc1ccccc1 | > 79 µM (inactive) |
| CCOC(=O)COc1ccc2c3c(c(=O)oc2c1)CCCC3 | > 79 µM (inactive) |
| Cc1ccc(NC(=O)CCCc2nc3ccccc3c(=O)[nH]2)c(Cl)c1 | 40 µM (inactive) |
| COC(=O)c1c(C)[nH]c(O)c1C=Nc1ccc(Oc2ccccc2)cc1 | > 79 µM (inactive) |
| COC(=O)Cn1c(=NC(=O)c2cc(-c3cccs3)nc3ccccc23)sc2cc(S(N)(=O)=O)ccc21 | 6.88 µM |
| COc1ccc(-c2ccc(Nc3ccc(S(=O)(=O)N4CCCC4)cc3)nn2)cc1OC | 25 µM |
| C#Cc1cc(N2CCN(C(=O)c3ccoc3)CC2)n2nc(-c3cccc(Cl)c3)cc2n1 | > 79 µM (inactive) |
| COc1ccc(N/C=C(\C#N)c2nc3ccccc3n2C)c(OC)c1 | > 79 µM (inactive) |
